Square brackets hold non-standard residues; d marks the D form. Peptide text beside a SMILES is read from it. Nle = CCCC[C@H](N)C(=O)O
Key:
[1] = molecular target: T1, cultured rat pituitary cells (Rattus norvegicus, UniProt P35353); experiment: Stimulation of ACTH and β-endorphin secretion by cultured rat pituitary cells (general procedure of Example III); type: cell-based; details: for secretion of ACTH and β-END-LI: general procedure of Example III
T1 sequence (P35353 24-415): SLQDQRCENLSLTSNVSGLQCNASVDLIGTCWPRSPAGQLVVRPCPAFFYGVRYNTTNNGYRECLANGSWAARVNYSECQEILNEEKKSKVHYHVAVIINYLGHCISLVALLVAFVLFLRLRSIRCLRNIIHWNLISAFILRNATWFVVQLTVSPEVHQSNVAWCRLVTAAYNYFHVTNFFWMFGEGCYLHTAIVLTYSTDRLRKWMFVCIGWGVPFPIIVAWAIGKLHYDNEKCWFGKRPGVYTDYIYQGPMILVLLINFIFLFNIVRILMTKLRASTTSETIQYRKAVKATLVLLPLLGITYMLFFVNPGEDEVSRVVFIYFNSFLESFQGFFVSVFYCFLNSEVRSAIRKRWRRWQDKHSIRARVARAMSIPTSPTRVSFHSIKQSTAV
Description: The synthetic peptide AHC and oCRF were examined for their effects on the secretion of ACTH and B-endorphin in vitro and was also in vivo. The potency of synthetic oCRF to stimulate the secretion of ACTH and β-endorphin by cultured rat pituitary cells was measured using the procedure as generally set forth in Endocrinology, 91, 562 (1972). […] In.vivo testing is carried out using the general procedure set forth in C. Rivier et al., Science, 218, 377 (1982).

[2] = Lowering of blood pressure, in vivo testing by the general procedure of Example III

Row | Compound | secretory response to maximal concentrations ([1]; maximal (1-5 nM) concentrations) | secretion of ACTH and β-END-LI [1] | lowering of blood pressure [2]
1 | H-SQEPPISLDLTFHLLREMLEMAKAEQEAEQAALNRLLLEEA-NH2 [AHC] | at a plateau level |  | 
2 | H-SQEPPISLDLTLELLREMLEMAKAEQEAEQAALNRLYLEEA-NH2 [[Leu^12, G1u^13, Tyr^37]-AHC] |  | stimulates | very significant lowering of blood pressure
3 | CC[C@H](C)[C@H](NC(=O)[C@@H](NC(=O)[C@H](CC(=O)O)NC(=O)[C@H](CC(C)C)NC(=O)[C@H](CC(C)C)NC(=O)[C@H](CC(C)C)NC(=O)[C@H](CCCNC(=N)N)NC(=O)[C@H](CC(N)=O)NC(=O)[C@H](CC(N)=O)NC(=O)[C@H](C)NC(=O)[C@H](C)NC(=O)[C@H](CCC(N)=O)NC(=O)[C@H](CCC(=O)O)NC(=O)[C@H](CCCCN)NC(=O)[C@H](CCC(=O)O)NC(=O)[C@H](CCCCN)NC(=O)[C@H](CCC(=O)O)NC(=O)[C@H](CCC(N)=O)NC(=O)[C@H](CCCCN)NC(=O)[C@H](CCCNC(=N)N)NC(=O)[C@H](C)NC(=O)[C@H](CCC(=O)O)NC(=O)[C@@H](NC(=O)[C@H](CCSC)NC(=O)[C@H](CCCCN)NC(=O)[C@H](CCCNC(=N)N)NC(=O)[C@H](CC(C)C)NC(=O)[C@H](CC(C)C)NC(=O)[C@H](CCC(=O)O)NC(=O)[C@H](CC(C)C)NC(=O)[C@H](CO)NC(=O)[C@H](CC(C)C)NC(=O)[C@H](CC(=O)O)NC(=O)[C@@H](NC(=O)[C@H](CO)NC(=O)[C@@H](NC(=O)[C@@H]1CCCN1C(=O)[C@@H]1CCCN1C(=O)CNC(=O)[C@@H]1CCC(=O)N1)[C@@H](C)CC)[C@@H](C)CC)[C@@H](C)CC)[C@@H](C)CC)C(N)=O |  | stimulates | very significant lowering of blood pressure
4 | H-SQE[dP]PISLDLTFHLLRE[Nle]LE[Nle]AKAEQEAEQAALNRLLLEEA-NH2 [[D-Pro^4, Nle^18,21]-AHC] |  | stimulates | very significant lowering of blood pressure
5 | H-SEEPPISLELTFHLLREVLE[Nle]ARAEQLAEQAHLNRKLMEII-NH2 [[Glu^9, Nle^21, Glu^29, Leu^33]-rCRF] |  | stimulates | very significant lowering of blood pressure to a greater extent than rCRF
6 | H-SQEPPISLELTFHLLRE[Nle]LE[Nle]AKAEQEAEQAALNRLLLEEA-NH2 [[Glu^9, Nle^18' ^21]-AHC] |  | stimulates | very significant lowering of blood pressure
7 | CCCC[C@H](NC(=O)[C@H](CCC(=O)O)NC(=O)[C@H](CC(C)C)NC(=O)[C@H](CCCC)NC(=O)[C@H](CCC(=O)O)NC(=O)[C@H](CCCNC(=N)N)NC(=O)[C@H](CC(C)C)NC(=O)[C@H](CC(C)C)NC(=O)[C@H](Cc1c[nH]cn1)NC(=O)[C@H](Cc1ccccc1)NC(=O)[C@@H](NC(=O)[C@H](CC(C)C)NC(=O)[C@H](CC(=O)O)NC(=O)[C@H](CC(C)C)NC(=O)[C@H](CO)NC(=O)[C@@H](NC(=O)[C@@H]1CCCN1C(=O)[C@H]1CCCN1)[C@@H](C)CC)[C@@H](C)O)C(=O)N[C@@H](C)C(=O)N[C@@H](CCCCN)C(=O)N[C@@H](C)C(=O)N[C@@H](CCC(=O)O)C(=O)N[C@@H](CCC(N)=O)C(=O)N[C@@H](CCC(=O)O)C(=O)N[C@@H](C)C(=O)N[C@@H](CCC(=O)O)C(=O)N[C@@H](CCC(N)=O)C(=O)N[C@@H](C)C(=O)N[C@@H](C)C(=O)N[C@@H](CC(C)C)C(=O)N[C@@H](CC(N)=O)C(=O)N[C@@H](CCCNC(=N)N)C(=O)N[C@@H](CC(C)C)C(=O)N[C@@H](CC(C)C)C(=O)N[C@@H](CC(C)C)C(=O)N[C@@H](CCC(=O)O)C(=O)N[C@@H](CCC(=O)O)C(=O)N[C@@H](C)C(N)=O [[D-Pro^4, Nle^18,21]-AHC(4-41)] (H-[dP]PISLDLTFHLLRE[Nle]LE[Nle]AKAEQEAEQAALNRLLLEEA-NH2) |  |  | very significant lowering of blood pressure
8 | CCCC[C@H](NC(=O)[C@H](CCC(=O)O)NC(=O)[C@H](CC(C)C)NC(=O)[C@H](CCCC)NC(=O)[C@H](CCC(=O)O)NC(=O)[C@H](CCCNC(=N)N)NC(=O)[C@H](CC(C)C)NC(=O)[C@H](CC(C)C)NC(=O)[C@H](Cc1c[nH]cn1)NC(=O)[C@H](Cc1ccccc1)NC(=O)[C@@H](NC(=O)[C@H](CC(C)C)NC(=O)[C@H](CC(=O)O)NC(=O)[C@H](CC(C)C)NC(=O)[C@H](CO)NC(=O)[C@@H](N)[C@@H](C)CC)[C@@H](C)O)C(=O)N[C@@H](C)C(=O)N[C@@H](CCCCN)C(=O)N[C@@H](C)C(=O)N[C@@H](CCC(=O)O)C(=O)N[C@@H](CCC(N)=O)C(=O)N[C@@H](CCC(=O)O)C(=O)N[C@@H](C)C(=O)N[C@@H](CCC(=O)O)C(=O)N[C@@H](CCC(N)=O)C(=O)N[C@@H](C)C(=O)N[C@@H](C)C(=O)N[C@@H](CC(C)C)C(=O)N[C@@H](CC(N)=O)C(=O)N[C@@H](CCCNC(=N)N)C(=O)N[C@@H](CCCNC(=N)N)C(=O)N[C@@H](CC(C)C)C(=O)N[C@@H](CC(C)C)C(=O)N[C@@H](CCC(=O)O)C(=O)N[C@@H](CCC(=O)O)C(=O)N[C@@H](C)C(N)=O [[Nle^18,21, Arg^36]-AHC(6-41)] (H-ISLDLTFHLLRE[Nle]LE[Nle]AKAEQEAEQAALNRRLLEEA-NH2) |  | stimulates | very significant lowering of blood pressure
9 | H-PPISLDLTFHLLREVLEMARAEQLAQQAHLNRKLMEEI-NH2 |  | stimulates | very significant lowering of blood pressure
10 | CCCC[C@H](NC(=O)[C@H](CCC(=O)O)NC(=O)[C@H](CCCNC(=N)N)NC(=O)[C@H](CC(C)C)NC(=O)[C@H](CC(C)C)NC(=O)[C@H](Cc1c[nH]cn1)NC(=O)[C@H](Cc1ccccc1)NC(=O)[C@@H](NC(=O)[C@H](CC(C)C)NC(=O)[C@H](CC(=O)O)NC(=O)[C@H](CC(C)C)NC(=O)[C@H](CO)NC(=O)[C@@H](NC(=O)[C@@H]1CCCN1C(=O)[C@@H]1CCCN1C(=O)[C@H](CCC(=O)O)NC(=O)[C@@H](N)CCC(N)=O)[C@@H](C)CC)[C@@H](C)O)C(=O)N[C@@H](CC(C)C)C(=O)N[C@@H](CCC(=O)O)C(=O)N[C@@H](CCSC)C(=O)N[C@H](C(=O)N[C@@H](CCCCN)C(=O)N[C@@H](C)C(=O)N[C@@H](CC(=O)O)C(=O)N[C@@H](CCC(N)=O)C(=O)N[C@@H](CC(C)C)C(=O)N[C@@H](C)C(=O)N[C@@H](CCC(N)=O)C(=O)N[C@@H](CCC(N)=O)C(=O)N[C@@H](C)C(=O)N[C@@H](Cc1c[nH]cn1)C(=O)N[C@@H](CO)C(=O)N[C@@H](CC(N)=O)C(=O)N[C@@H](CCCNC(=N)N)C(=O)N[C@@H](CCCCN)C(=O)N[C@@H](Cc1ccc(O)cc1)C(=O)N[C@@H](CC(C)C)C(=O)N[C@@H](CC(=O)O)C(=O)N[C@@H](CCC(=O)O)C(=O)N[C@@H](C)C(N)=O)[C@@H](C)O [[Nle^18,Tyr^37,Glu^40]-oCRF(2-41)] (H-QEPPISLDLTFHLLRE[Nle]LEMTKADQLAQQAHSNRKYLDEA-NH2) |  | stimulates | very significant lowering of blood pressure
11 | CCCC[C@H](NC(=O)[C@H](CCC(=O)O)NC(=O)[C@H](CC(C)C)NC(=O)[C@H](CCCC)NC(=O)[C@H](CCC(=O)O)NC(=O)[C@H](CCCNC(=N)N)NC(=O)[C@H](CC(C)C)NC(=O)[C@H](CC(C)C)NC(=O)[C@H](Cc1c[nH]cn1)NC(=O)[C@H](Cc1ccccc1)NC(=O)[C@@H](NC(=O)[C@H](CC(C)C)NC(=O)[C@H](CC(=O)O)NC(=O)[C@H](CC(C)C)NC(=O)[C@H](CO)NC(=O)[C@@H](NC(=O)[C@@H]1CCCN1C(=O)[C@H]1CCCN1C(=O)[C@H](N)Cc1ccc(O)cc1)[C@@H](C)CC)[C@@H](C)O)C(=O)N[C@@H](C)C(=O)N[C@@H](CCCCN)C(=O)N[C@@H](C)C(=O)N[C@@H](CCC(=O)O)C(=O)N[C@@H](CCC(N)=O)C(=O)N[C@@H](CCC(=O)O)C(=O)N[C@@H](C)C(=O)N[C@@H](CCC(=O)O)C(=O)N[C@@H](CCC(N)=O)C(=O)N[C@@H](C)C(=O)N[C@@H](C)C(=O)N[C@@H](CC(C)C)C(=O)N[C@@H](CC(N)=O)C(=O)N[C@@H](CCCNC(=N)N)C(=O)N[C@@H](CC(C)C)C(=O)N[C@@H](CC(C)C)C(=O)N[C@@H](CC(C)C)C(=O)N[C@@H](CCC(=O)O)C(=O)N[C@@H](CCC(=O)O)C(=O)N[C@@H](C)C(N)=O [[D-Tyr^3, D-Pro^4, Nle^18,21]-AHC(3-41)] (H-[dY][dP]PISLDLTFHLLRE[Nle]LE[Nle]AKAEQEAEQAALNRLLLEEA-NH2) |  |  | very significant lowering of blood pressure
12 | H-SQEPPISLDLTFHLLREVLEMTRADQLAQQAHSNRRLLDIA-NH2 [[Arg^23,36]-oCRF] |  |  | very significant lowering of blood pressure
